Test results taken from patent US10501425B2, “Microbiocidal oxadiazole derivatives” (SYNGENTA PARTICIPATIONS AG, priority 2015, dated 2019).

How the values were obtained:
[1] = test system: Glomerella lacenarium (Colletotrichum lagenarium); assay: Glomerella lagenarium liquid culture / cucumber / preventative (anthracnose); format: cell-based; settings: Colletotrichum orbiculare; 20 ppm in the applied formulation; liquid culture (PDB), growth inhibition measured photometrically 3 to 4 days after application; compared to untreated; read-out: disease control
Outline: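 Conidia from cryogenic storage were mixed into potato dextrose broth. This was added to compound diluted from DMSO into 0.025% Tween20, tested at 20 ppm. Plates were incubated in the dark at 24 °C and 96% relative humidity, and growth was read photometrically after 2–7 days as % activity versus untreated check.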

Phakopsora pachyrhizi = Phakopsora pachyrhizi / soybean / leaf disc preventative (Asian soybean rust); format: in vivo; settings: foliar, 200 ppm in the applied formulation, soybean leaf disks, compared to untreated, read-out: disease control
Protocol: Leaf disks or leaf segments of various plant species are cut from plants grown in a greenhouse. The cut leaf disks or segments are placed in multiwell plates (24-well format) onto water agar. The leaf disks are sprayed with a test solution before (preventative) or after (curative) inoculation. Compounds to be tested are prepared as DMSO solutions (max. 10 mg/ml) which are diluted to the appropriate concentration with 0.025% Tween20 just before spraying. The inoculated leaf disks or segments are incubated under defined conditions (temperature, relative humidity, light, etc.) according to the respective test system. A single evaluation of disease level is carried out 3 to 14 days after inoculation, depending on the pathosystem. Percent disease control relative to the untreated check leaf disks or segments is then calculated.
Soybean leaf disks are placed on water agar in multiwell plates (24-well format) and sprayed with the formulated test compound diluted in water. One day after application leaf discs are inoculated by spraying a spore suspension on the lower leaf surface. After an incubation period in a climate cabinet of 24-36 hours in darkness at 20° C. and 75% rh leaf disc are kept at 20° C. with 12 h light/day and 75% rh. The activity of a compound is assessed as percent disease control compared to untreated when an appropriate level of disease damage appears in untreated check leaf disks (12 to 14 days after application).
The following compounds at 200 ppm in the applied formulation give at least 80% disease control in this test when compared to untreated control leaf disks under the same conditions, which show extensive disease development.

[2] = test system: Puccinia recondita f. Sp. Tritici; assay: Puccinia recondita f. sp. tritici / wheat / leaf disc curative (brown rust); format: in vivo; settings: foliar, 24 h, 200 ppm in the applied formulation, wheat leaf segments cv. Kanzler, curative (applied 1 day after inoculation), compared to untreated, read-out: disease control
Outline: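 Compounds, prepared from DMSO solutions of at most 10 mg/ml and diluted just before spraying, are applied curatively to inoculated Kanzler wheat leaf segments. Segments are incubated at 19° C and 75% RH in a climate cabinet; disease control relative to untreated is evaluated 6 to 8 days later.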

[3] = test system: Puccinia recondita f. Sp. Tritici; assay: Puccinia recondita f. sp. tritici / wheat / leaf disc preventative (brown rust); format: in vivo; settings: foliar, 200 ppm in the applied formulation, wheat leaf segments cv. Kanzler, preventative (inoculated 1 day after application), compared to untreated, read-out: disease control
Outline: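 Preventative leaf-segment test: compound at 200 ppm applied by spray to Kanzler wheat, with spore inoculation following after one day. Disease control relative to untreated check read 7 to 9 days post-application, incubation at 19° C., 75% relative humidity, 12 h light/12 h dark.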

CC(C)C(=O)NCc1ccc(-c2noc(C(F)(F)F)n2)c(F)c1 [Compound 1.77, N-[[3-fluoro-4-[5-(trifluoromethyl)-1,2,4-oxadiazol-3-yl]phenyl]methyl]-2-methyl-propanamide]
≥ 80%: inhibition of growth at 20 ppm [1] | pest or weed control at 200 ppm (Phakopsora pachyrhizi) | pest or weed control at 200 ppm [2] | pest or weed control at 200 ppm [3]

CCCC(=O)NCc1ccc(-c2noc(C(F)(F)F)n2)c(F)c1 [Compound 1.78, N-[[3-fluoro-4-[5-(trifluoromethyl)-1,2,4-oxadiazol-3-yl]phenyl]methyl]butanamide]
≥ 80%: inhibition of growth at 20 ppm [1] | pest or weed control at 200 ppm (Phakopsora pachyrhizi) | pest or weed control at 200 ppm [2] | pest or weed control at 200 ppm [3]

COCC(=O)NCc1ccc(-c2noc(C(F)(F)F)n2)c(F)c1 [Compound 1.80]
≥ 80%: inhibition of growth at 20 ppm [1] | pest or weed control at 200 ppm (Phakopsora pachyrhizi) | pest or weed control at 200 ppm [2] | pest or weed control at 200 ppm [3]

CC(C)C(=O)NCCc1ccc(-c2noc(C(F)(F)F)n2)cc1 [Compound 1.83, 2-methyl-N-[2-[4-[5-(trifluoromethyl)-1,2,4-oxadiazol-3-yl]phenyl]ethyl]propanamide]
≥ 80%: inhibition of growth at 20 ppm [1] | pest or weed control at 200 ppm (Phakopsora pachyrhizi) | pest or weed control at 200 ppm [2] | pest or weed control at 200 ppm [3]

CCCC(=O)NCCc1ccc(-c2noc(C(F)(F)F)n2)cc1 [Compound 1.84, N-[2-[4-[5-(trifluoromethyl)-1,2,4-oxadiazol-3-yl]phenyl]ethyl]butanamide]
≥ 80%: inhibition of growth at 20 ppm [1] | pest or weed control at 200 ppm (Phakopsora pachyrhizi) | pest or weed control at 200 ppm [2] | pest or weed control at 200 ppm [3]

COCCC(=O)NCCc1ccc(-c2noc(C(F)(F)F)n2)cc1 [Compound 1.85, 3-methoxy-N-[2-[4-[5-(trifluoromethyl)-1,2,4-oxadiazol-3-yl]phenyl]ethyl]propanamide]
≥ 80%: inhibition of growth at 20 ppm [1] | pest or weed control at 200 ppm (Phakopsora pachyrhizi) | pest or weed control at 200 ppm [2] | pest or weed control at 200 ppm [3]

COCC(=O)NCCc1ccc(-c2noc(C(F)(F)F)n2)cc1 [Compound 1.86, 2-methoxy-N-[2-[4-[5-(trifluoromethyl)-1,2,4-oxadiazol-3-yl]phenyl]ethyl]acetamide]
≥ 80%: inhibition of growth at 20 ppm [1] | pest or weed control at 200 ppm (Phakopsora pachyrhizi) | pest or weed control at 200 ppm [2] | pest or weed control at 200 ppm [3]

CCC(C)C(=O)NCCc1ccc(-c2noc(C(F)(F)F)n2)cc1 (stereo not drawn) [Compound 1.87, 2-methyl-N-[2-[4-[5-(trifluoromethyl)-1,2,4-oxadiazol-3-yl]phenyl]ethyl]butanamide]
≥ 80%: inhibition of growth at 20 ppm [1] | pest or weed control at 200 ppm (Phakopsora pachyrhizi) | pest or weed control at 200 ppm [2] | pest or weed control at 200 ppm [3]

COCCCC(=O)NCCc1ccc(-c2noc(C(F)(F)F)n2)cc1 [Compound 1.89, 4-methoxy-N-[2-[4-[5-(trifluoromethyl)-1,2,4-oxadiazol-3-yl]phenyl]ethyl]butanamide]
≥ 80%: inhibition of growth at 20 ppm [1] | pest or weed control at 200 ppm (Phakopsora pachyrhizi) | pest or weed control at 200 ppm [2] | pest or weed control at 200 ppm [3]

N#CCC(=O)NCCc1ccc(-c2noc(C(F)(F)F)n2)cc1 [Compound 1.90, 2-cyano-N-[2-[4-[5-(trifluoromethyl)-1,2,4-oxadiazol-3-yl]phenyl]ethyl]acetamide]
≥ 80%: inhibition of growth at 20 ppm [1] | pest or weed control at 200 ppm (Phakopsora pachyrhizi) | pest or weed control at 200 ppm [2] | pest or weed control at 200 ppm [3]

CC(=O)NCCc1ccc(-c2noc(C(F)(F)F)n2)cc1 [Compound 1.92, N-[2-[4-[5-(trifluoromethyl)-1,2,4-oxadiazol-3-yl]phenyl]ethyl]acetamide]
≥ 80%: inhibition of growth at 20 ppm [1] | pest or weed control at 200 ppm (Phakopsora pachyrhizi) | pest or weed control at 200 ppm [2] | pest or weed control at 200 ppm [3]

COCC(=O)NC(C)(C)c1ccc(-c2noc(C(F)(F)F)n2)cc1 [Compound 1.95, 2-methoxy-N-[1-methyl-1-[4-[5-(trifluoromethyl)-1,2,4-oxadiazol-3-yl]phenyl]ethyl]acetamide]
≥ 80%: inhibition of growth at 20 ppm [1] | pest or weed control at 200 ppm (Phakopsora pachyrhizi) | pest or weed control at 200 ppm [2] | pest or weed control at 200 ppm [3]

CC(C)COC(=O)NCc1ccc(-c2noc(C(F)(F)F)n2)cc1 [Compound 2.8, isobutyl N-[[4-[5-(trifluoromethyl)-1,2,4-oxadiazol-3-yl]phenyl]methyl]carbamate]
≥ 80%: inhibition of growth at 20 ppm [1] | pest or weed control at 200 ppm (Phakopsora pachyrhizi) | pest or weed control at 200 ppm [2] | pest or weed control at 200 ppm [3]

C=CCOC(=O)NCc1ccc(-c2noc(C(F)(F)F)n2)cc1 [Compound 2.10, allyl N-[[4-[5-(trifluoromethyl)-1,2,4-oxadiazol-3-yl]phenyl]methyl]carbamate]
≥ 80%: inhibition of growth at 20 ppm [1] | pest or weed control at 200 ppm (Phakopsora pachyrhizi) | pest or weed control at 200 ppm [2] | pest or weed control at 200 ppm [3]

CCCCOC(=O)NCc1ccc(-c2noc(C(F)(F)F)n2)cc1 [Compound 2.11, butyl N-[[4-[5-(trifluoromethyl)-1,2,4-oxadiazol-3-yl]phenyl]methyl]carbamate]
≥ 80%: inhibition of growth at 20 ppm [1] | pest or weed control at 200 ppm (Phakopsora pachyrhizi) | pest or weed control at 200 ppm [2] | pest or weed control at 200 ppm [3]

O=C(NCc1ccc(-c2noc(C(F)(F)F)n2)cc1)OCCCCCl [Compound 2.13, 4-chlorobutyl N-[[4-[5-(trifluoromethyl)-1,2,4-oxadiazol-3-yl]phenyl]methyl]carbamate]
≥ 80%: inhibition of growth at 20 ppm [1] | pest or weed control at 200 ppm (Phakopsora pachyrhizi) | pest or weed control at 200 ppm [2] | pest or weed control at 200 ppm [3]

CC(C)OC(=O)NCc1ccc(-c2noc(C(F)(F)F)n2)cc1 [Compound 2.14, isopropyl N-[[4-[5-(trifluoromethyl)-1,2,4-oxadiazol-3-yl]phenyl]methyl]carbamate]
≥ 80%: inhibition of growth at 20 ppm [1] | pest or weed control at 200 ppm (Phakopsora pachyrhizi) | pest or weed control at 200 ppm [2] | pest or weed control at 200 ppm [3]

O=C(NCc1ccc(-c2noc(C(F)(F)F)n2)cc1)OCCF [Compound 2.15, 2-fluoroethyl N-[[4-[5-(trifluoromethyl)-1,2,4-oxadiazol-3-yl]phenyl]methyl]carbamate]
≥ 80%: inhibition of growth at 20 ppm [1] | pest or weed control at 200 ppm (Phakopsora pachyrhizi) | pest or weed control at 200 ppm [2] | pest or weed control at 200 ppm [3]

O=C(NCc1ccc(-c2noc(C(F)(F)F)n2)cc1)OCCCCl [Compound 2.16, 3-chloropropyl N-[[4-[5-(trifluoromethyl)-1,2,4-oxadiazol-3-yl]phenyl]methyl]carbamate]
≥ 80%: inhibition of growth at 20 ppm [1] | pest or weed control at 200 ppm (Phakopsora pachyrhizi) | pest or weed control at 200 ppm [2] | pest or weed control at 200 ppm [3]

O=C(NCc1ccc(-c2noc(C(F)(F)F)n2)cc1)OCCCl [Compound 2.17, 2-chloroethyl N-[[4-[5-(trifluoromethyl)-1,2,4-oxadiazol-3-yl]phenyl]methyl]carbamate]
≥ 80%: inhibition of growth at 20 ppm [1] | pest or weed control at 200 ppm (Phakopsora pachyrhizi) | pest or weed control at 200 ppm [2] | pest or weed control at 200 ppm [3]

CC(C)NC(=O)NCc1ccc(-c2noc(C(F)(F)F)n2)cc1 [Compound 3.9, 1-isopropyl-3-[[4-[5-(trifluoromethyl)-1,2,4-oxadiazol-3-yl]phenyl]methyl]urea]
≥ 80%: inhibition of growth at 20 ppm [1] | pest or weed control at 200 ppm (Phakopsora pachyrhizi) | pest or weed control at 200 ppm [2] | pest or weed control at 200 ppm [3]
